In article PMC8286840, “Identifying SARS-CoV-2 antiviral compounds by screening for small molecule inhibitors of Nsp3 papain-like protease” (Biochemical Journal, 2021):
Where a name gives a salt, the structure may show the parent alone. Read-outs that look alike come from different tables or passages of the source.

Experiments:
[1] = target: T1, SARS-CoV-2 PLpro (nsp3 1564–1878) (Severe acute respiratory syndrome coronavirus 2, UniProt P0DTD1); assay: biochemical; set-up: FRET-quenched peptide (Pro3) cleavage by PLpro, 10 min pre-incubation, slope over 20 min, normalised to no-compound control; settings: high concentration screen, read-out: % of control remaining
[2] = target: T1, SARS-CoV-2 PLpro (nsp3 1564–1878); assay: biochemical; set-up: FRET-quenched peptide (Pro3) cleavage by PLpro, 10 min pre-incubation, slope over 20 min, normalised to no-compound control; settings: low concentration screen, read-out: % of control remaining

With `COc1cccc2oc(-c3ccccc3)cc(=O)c12` [5-Methoxyflavone] as the molecule, how does the remaining activity at 3.75 µM ([1]; Well no.=3453) read?
Its remaining activity at 3.75 µM is 90.5%.

And the remaining activity at 1.25 µM ([2]; Well no.=3453)?
Its remaining activity at 1.25 µM is 92.1%.

What does the source list for `Cc1cn([C@H]2C[C@H](O)[C@@H](CO)O2)c(=O)nc1N` [5-Methyl-2'-deoxycytidine]?
remaining activity at 3.75 µM ([1]; Well no.=7493): 105%; remaining activity at 3.75 µM ([1]; Well no.=7720): 102%; remaining activity at 1.25 µM ([2]; Well no.=7493): 104%; remaining activity at 1.25 µM ([2]; Well no.=7720): 98.8%

Which results are given for `Cc1cn([C@@H]2O[C@H](CO)[C@@H](O)[C@H]2O)c(=O)nc1N` [5-Methylcytidine]?
remaining activity at 3.75 µM ([1]; Well no.=6585): 104%; remaining activity at 3.75 µM ([1]; Well no.=8853): 88.8%; remaining activity at 1.25 µM ([2]; Well no.=6585): 103%; remaining activity at 1.25 µM ([2]; Well no.=8853): 100%

For `Cc1cn([C@@H]2O[C@H](CO)[C@@H](O)[C@H]2O)c(=O)[nH]c1=O` [5-Methyluridine], which remaining activity at 3.75 µM ([1]; Well no.=6213) is on record?
Its remaining activity at 3.75 µM is 91.5%.

And the remaining activity at 3.75 µM ([1]; Well no.=8891)?
The remaining activity at 3.75 µM was 98.5%.

What about the remaining activity at 1.25 µM ([2]; Well no.=6213) of the same molecule?
Its remaining activity at 1.25 µM is 101%.

And the remaining activity at 1.25 µM ([2]; Well no.=8891)?
Its remaining activity at 1.25 µM is 96.6%.

Which results are given for `O=C(O)c1cc([N+](=O)[O-])ccc1NCCCc1ccccc1` [5-Nitro-2-(3-phenylpropylamino)benzoic acid]?
remaining activity at 3.75 µM ([1]; Well no.=1047): 99.3%; remaining activity at 1.25 µM ([2]; Well no.=1047): 99.5%

For `CN(C)c1ccc(C2Nc3ccc4ccccc4c3C3=C2C(=O)CC(C)(C)C3)cc1Br` (stereo not drawn) [5-[3-bromo-4-(dimethylamino)phenyl]-2,2-dimethyl-2,3,5,6-tetrahydrobenzo[a]phenanthridin-4(1H)-one], which remaining activity at 3.75 µM ([1]; Well no.=5515) is on record?
The remaining activity at 3.75 µM was 106%.

What about the remaining activity at 1.25 µM ([2]; Well no.=5515) of the same molecule?
Its remaining activity at 1.25 µM is 106%.

What does the source list for `Nc1ncn([C@@H]2O[C@H](CO)[C@@H](O)[C@H]2O)c(=O)n1` [5-azacytidine]?
remaining activity at 3.75 µM ([1]; Well no.=155): 96.6%; remaining activity at 1.25 µM ([2]; Well no.=155): 95.5%

What does the source list for `OB1OCc2cc(F)ccc21` [5-fluoro-2,1-benzoxaborol-1(3H)-ol]?
remaining activity at 3.75 µM ([1]; Well no.=5477): 109%; remaining activity at 1.25 µM ([2]; Well no.=5477): 103%

`C[C@H]1O[C@@H](n2cc(F)c(=O)[nH]c2=O)[C@H](O)[C@@H]1O` [5-fluoro-5'-deoxyuridine] was tested. Which remaining activity at 3.75 µM ([1]; Well no.=663) did it give?
The remaining activity at 3.75 µM was 98.8%.

What about the remaining activity at 1.25 µM ([2]; Well no.=663) of the same molecule?
The remaining activity at 1.25 µM was 102%.

`COc1ccc(-c2cc(=O)c3c(O)c(OC)c(OC)cc3o2)cc1O` [5-hydroxy-2-(3-hydroxy-4-methoxyphenyl)-6,7-dimethoxy-4H-chromen-4-one] was tested. Which remaining activity at 3.75 µM ([1]; Well no.=5983) did it give?
The remaining activity at 3.75 µM was 95.3%.

And the remaining activity at 1.25 µM ([2]; Well no.=5983)?
Its remaining activity at 1.25 µM is 98.6%.

Which results are given for `O=c1cc(CO)occ1O` [5-hydroxy-2-(hydroxymethyl)-4H-pyran-4-one]?
remaining activity at 3.75 µM ([1]; Well no.=5437): 113%; remaining activity at 1.25 µM ([2]; Well no.=5437): 109%

With `CCCCCC(O)CCCC(=O)O` (stereo not drawn) [5-hydroxydecanoic acid sodium] as the molecule, how does the remaining activity at 3.75 µM ([1]; Well no.=714) read?
Its remaining activity at 3.75 µM is 85.9%.

What about the remaining activity at 1.25 µM ([2]; Well no.=714) of the same molecule?
The remaining activity at 1.25 µM was 88.7%.

For `COC(=O)C1=C(C#N)NC(C)=C(C(=O)OC(C)C)C1c1cccc([N+](=O)[O-])c1` (stereo not drawn) [5-isopropyl 3-methyl 2-cyano-6-methyl-4-(3-nitrophenyl)-1,4-dihydro-3,5-pyridinedicarboxylate], which remaining activity at 3.75 µM ([1]; Well no.=6056) is on record?
Its remaining activity at 3.75 µM is 89.3%.

And the remaining activity at 1.25 µM ([2]; Well no.=6056)?
The remaining activity at 1.25 µM was 94%.

For `C[n+]1c2ccccc2nc2ccccc21` [5-methylphenazin-5-ium methyl sulfate], which remaining activity at 3.75 µM ([1]; Well no.=5668) is on record?
The remaining activity at 3.75 µM was 89.8%.

And the remaining activity at 1.25 µM ([2]; Well no.=5668)?
The remaining activity at 1.25 µM was 91.9%.

How did the remaining activity at 3.75 µM ([1]; Well no.=6085) turn out when `CC(C)c1cccc(C(C)C)c1N1C(=O)c2ccc(O)cc2C1=O` [5HPP-33] was run?
The remaining activity at 3.75 µM was 99.4%.

What about the remaining activity at 1.25 µM ([2]; Well no.=6085) of the same molecule?
The remaining activity at 1.25 µM was 101%.

Which results are given for `CC(=O)[C@H]1CC[C@H]2[C@@H]3CC[C@H]4CC(=O)CC[C@]4(C)[C@H]3CC[C@]12C` [5a-Pregnane-3,20-dione]?
remaining activity at 3.75 µM ([1]; Well no.=7357): 105%; remaining activity at 1.25 µM ([2]; Well no.=7357): 106%

For `C[C@]12CC[C@@H](O)C[C@@H]1CC[C@@H]1[C@@H]2CC[C@]2(C)[C@@H](O)CC[C@@H]12` [5alpha-Androstane-3alpha,17beta-diol], which remaining activity at 3.75 µM ([1]; Well no.=244) is on record?
The remaining activity at 3.75 µM was 94.8%.

And the remaining activity at 1.25 µM ([2]; Well no.=244)?
The remaining activity at 1.25 µM was 98.9%.

With `O=c1[nH]c2ccccc2c2ccccc12` [6(5H)-Phenanthridinone] as the molecule, how does the remaining activity at 3.75 µM ([1]; Well no.=1305) read?
The remaining activity at 3.75 µM was 107%.

What about the remaining activity at 1.25 µM ([2]; Well no.=1305) of the same molecule?
The remaining activity at 1.25 µM was 104%.

Which results are given for `CCCCCCCCCCC/C=C/CCCCC(=O)O` [6(E)-Octadecenoic acid]?
remaining activity at 3.75 µM ([1]; Well no.=4318): 99.5%; remaining activity at 1.25 µM ([2]; Well no.=4318): 105%

How did the remaining activity at 3.75 µM ([1]; Well no.=4398) turn out when `CC/C=C\C/C=C\C/C=C\C/C=C\CCCCC(=O)O` [6(Z), 9(Z), 12(Z), 15(Z)-Octadecatetraenoic acid] was run?
Its remaining activity at 3.75 µM is 97.4%.

And the remaining activity at 1.25 µM ([2]; Well no.=4398)?
The remaining activity at 1.25 µM was 101%.

For `CCCCC/C=C\C/C=C\C/C=C\CCCCC(=O)O` [6(Z), 9(Z), 12(Z)-Octadecatrienoic Acid], which remaining activity at 3.75 µM ([1]; Well no.=4360) is on record?
Its remaining activity at 3.75 µM is 107%.

What about the remaining activity at 1.25 µM ([2]; Well no.=4360) of the same molecule?
Its remaining activity at 1.25 µM is 107%.

For `CCCCCCCCCCC/C=C\CCCCC(=O)O` [6(Z)-Octadecenoic acid], which remaining activity at 3.75 µM ([1]; Well no.=4316) is on record?
Its remaining activity at 3.75 µM is 98.8%.

What about the remaining activity at 1.25 µM ([2]; Well no.=4316) of the same molecule?
The remaining activity at 1.25 µM was 103%.

How did the remaining activity at 3.75 µM ([1]; Well no.=444) turn out when `NC1CCc2cc(O)c(O)cc2C1` (stereo not drawn) [6,7-ADTN hydrobromide] was run?
Its remaining activity at 3.75 µM is 104%.

What about the remaining activity at 1.25 µM ([2]; Well no.=444) of the same molecule?
Its remaining activity at 1.25 µM is 101%.

Which results are given for `O=c1cc(-c2ccccc2)oc2cc(O)c(O)cc12` [6,7-Dihydroxyflavone]?
remaining activity at 3.75 µM ([1]; Well no.=3441): 98.9%; remaining activity at 1.25 µM ([2]; Well no.=3441): 100%

Which results are given for `Fc1cc(F)c2c(c1)C1C=CCC1C(c1cccnc1)N2` (stereo not drawn) [6,8-difluoro-4-(3-pyridinyl)-3a,4,5,9b-tetrahydro-3H-cyclopenta[c]quinoline]?
remaining activity at 3.75 µM ([1]; Well no.=5390): 91.3%; remaining activity at 1.25 µM ([2]; Well no.=5390): 97.2%

Which results are given for `CC(=O)N[C@H]1CN2CC[C@H](O)[C@@H]2[C@@H](O)[C@@H]1O` [6-Acetamido-6-deoxy-castanospermine]?
remaining activity at 3.75 µM ([1]; Well no.=3294): 99.3%; remaining activity at 1.25 µM ([2]; Well no.=3294): 97.4%

`NCCCCCC(=O)O` [6-Aminohexanoic acid] was tested. Which remaining activity at 3.75 µM ([1]; Well no.=6) did it give?
The remaining activity at 3.75 µM was 102%.

And the remaining activity at 1.25 µM ([2]; Well no.=6)?
Its remaining activity at 1.25 µM is 101%.

`C[C@H](O)[C@H](O)c1cnc2nc(N)[nH]c(=O)c2n1` [6-Biopterin] was tested. Which remaining activity at 3.75 µM ([1]; Well no.=6447) did it give?
Its remaining activity at 3.75 µM is 95.8%.

And the remaining activity at 1.25 µM ([2]; Well no.=6447)?
Its remaining activity at 1.25 µM is 99.6%.

For `COc1cc2c(CCNC(C)=O)c[nH]c2cc1Cl` [6-Chloromelatonin], which remaining activity at 3.75 µM ([1]; Well no.=89) is on record?
The remaining activity at 3.75 µM was 101%.

And the remaining activity at 1.25 µM ([2]; Well no.=89)?
The remaining activity at 1.25 µM was 98.5%.

What does the source list for `NCC(O)c1cc(O)c(O)cc1F` (stereo not drawn) [6-Fluoronorepinephrine hydrochloride]?
remaining activity at 3.75 µM ([1]; Well no.=227): 97%; remaining activity at 1.25 µM ([2]; Well no.=227): 97.7%

Which remaining activity at 3.75 µM ([1]; Well no.=4507) does the source give for `O=Cc1c2[nH]c3ccccc3c2cc2[nH]c3ccccc3c12` [6-Formylindolo [3,2-B] carbazole] here?
The remaining activity at 3.75 µM was 97.6%.

What about the remaining activity at 1.25 µM ([2]; Well no.=4507) of the same molecule?
Its remaining activity at 1.25 µM is 90.7%.

For `O=c1cc(-c2ccccc2)oc2ccc(O)cc12` [6-Hydroxyflavone (6-HF)], which remaining activity at 3.75 µM ([1]; Well no.=8104) is on record?
Its remaining activity at 3.75 µM is 98.5%.

What about the remaining activity at 1.25 µM ([2]; Well no.=8104) of the same molecule?
The remaining activity at 1.25 µM was 98.9%.

How did the remaining activity at 3.75 µM ([1]; Well no.=654) turn out when `COc1cc2c(CCNC(C)=O)c[nH]c2cc1O` [6-Hydroxymelatonin] was run?
The remaining activity at 3.75 µM was 96.7%.

And the remaining activity at 1.25 µM ([2]; Well no.=654)?
Its remaining activity at 1.25 µM is 95.9%.
